Data: US20230049231A1 (priority 2019, published 2023)
pIC50: −log10 of the molar value.

Assays:
[1] = biological target: T1, Kv1.3 potassium channel (Homo sapiens, UniProt P22001); assay: Kv1.3 potassium channel blocker activity, automated whole-cell patch clamp (Patchliner); format: cell-based
T1 construct: expressed in transfected cells
In short: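 IC50 came from Hill-equation fits of peak and AUC currents from the final pulse at each concentration, normalized to compound-free control. Compounds applied consecutively at 30 nM to 100 μM (up to 0.3% DMSO) to Kv1.3-expressing CHO-K1 cells, P/4 leak subtraction. Pulses were +40 mV, 100 ms, from −90 mV holding, at 0.1 Hz on Patchliner.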

[2] = biological target: T2, hERG channel (Homo sapiens, UniProt Q12809); assay: hERG electrophysiology, automated whole-cell patch clamp (Patchliner); format: cell-based
T2 construct: expressed in transfected cells
In short: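 Automated whole-cell patch clamp on CHO-K1 cells stably expressing hERG; 30 nM–100 μM applied cumulatively to the same cell, ≤0.3% DMSO. Pulses: −80 mV holding, +20 mV for 300 ms, −50 mV for 300 ms tail, 0.3 Hz, 70 per concentration. Last-pulse AUC and peak, normalized to control, were fitted to a Hill equation for IC50.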

[3] = Kv1.3 potassium channel, whole-cell patch clamp
[4] = hERG channel, whole-cell patch clamp
[5] = CHO-K1 cells stably expressing Kv1.3, 100 ms pulses from -90 mV to +40 mV, 0.1 Hz
[6] = CHO-K1 cells stably expressing hERG, +20 mV 300 ms, -50 mV 300 ms tail current, 0.3 Hz

T1 sequence (P22001 whole entry): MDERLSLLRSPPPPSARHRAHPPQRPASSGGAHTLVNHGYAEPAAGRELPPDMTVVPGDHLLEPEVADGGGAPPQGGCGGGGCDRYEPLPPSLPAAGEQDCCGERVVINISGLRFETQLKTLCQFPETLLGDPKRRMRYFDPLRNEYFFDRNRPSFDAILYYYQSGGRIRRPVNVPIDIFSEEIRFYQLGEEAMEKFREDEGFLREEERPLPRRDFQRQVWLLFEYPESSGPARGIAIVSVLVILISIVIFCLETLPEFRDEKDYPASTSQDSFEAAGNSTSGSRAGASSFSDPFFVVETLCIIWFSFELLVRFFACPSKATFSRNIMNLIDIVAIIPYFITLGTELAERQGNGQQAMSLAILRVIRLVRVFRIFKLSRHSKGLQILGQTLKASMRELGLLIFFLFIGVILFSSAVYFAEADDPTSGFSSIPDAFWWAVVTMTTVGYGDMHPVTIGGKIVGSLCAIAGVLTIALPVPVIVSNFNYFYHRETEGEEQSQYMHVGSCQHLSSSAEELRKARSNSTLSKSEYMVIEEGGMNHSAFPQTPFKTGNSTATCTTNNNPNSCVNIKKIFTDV
T2 sequence (Q12809 whole entry): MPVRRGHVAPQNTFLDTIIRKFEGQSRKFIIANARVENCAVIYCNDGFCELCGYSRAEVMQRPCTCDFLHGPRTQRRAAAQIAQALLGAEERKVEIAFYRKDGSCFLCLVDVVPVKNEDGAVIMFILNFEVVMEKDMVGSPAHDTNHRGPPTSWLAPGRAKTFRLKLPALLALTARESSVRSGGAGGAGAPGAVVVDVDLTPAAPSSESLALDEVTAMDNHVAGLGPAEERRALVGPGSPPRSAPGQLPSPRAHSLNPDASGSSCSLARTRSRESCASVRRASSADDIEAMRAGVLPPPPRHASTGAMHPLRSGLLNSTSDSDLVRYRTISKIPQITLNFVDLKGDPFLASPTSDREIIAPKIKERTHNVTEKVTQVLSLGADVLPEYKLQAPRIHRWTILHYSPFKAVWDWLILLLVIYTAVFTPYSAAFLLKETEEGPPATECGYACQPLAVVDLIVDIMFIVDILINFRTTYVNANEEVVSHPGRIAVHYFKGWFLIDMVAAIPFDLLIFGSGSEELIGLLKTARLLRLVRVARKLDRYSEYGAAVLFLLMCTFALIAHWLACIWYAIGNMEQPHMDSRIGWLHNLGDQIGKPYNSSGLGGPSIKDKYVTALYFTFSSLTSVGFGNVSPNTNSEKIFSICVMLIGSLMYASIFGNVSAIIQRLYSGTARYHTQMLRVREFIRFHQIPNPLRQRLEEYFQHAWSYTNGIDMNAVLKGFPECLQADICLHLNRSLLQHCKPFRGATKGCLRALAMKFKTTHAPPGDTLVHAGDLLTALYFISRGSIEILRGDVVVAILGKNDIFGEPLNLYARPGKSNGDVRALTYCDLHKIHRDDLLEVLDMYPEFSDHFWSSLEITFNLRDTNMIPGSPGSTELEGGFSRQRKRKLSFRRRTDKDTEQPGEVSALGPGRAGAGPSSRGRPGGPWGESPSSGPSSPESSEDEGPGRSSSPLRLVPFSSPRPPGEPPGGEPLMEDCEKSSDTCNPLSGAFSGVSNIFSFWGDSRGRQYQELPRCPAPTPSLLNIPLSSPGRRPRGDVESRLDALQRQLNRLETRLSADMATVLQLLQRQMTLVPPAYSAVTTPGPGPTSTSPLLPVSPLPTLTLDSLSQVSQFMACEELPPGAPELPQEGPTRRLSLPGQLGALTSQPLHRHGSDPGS

Question: How did the pIC50 [1, 3] turn out when C[C@H]1CN(C(=O)CO)C[C@@H]2C[C@H](c3c(O)ccc(Cl)c3Cl)CN2C1=O (single isomer, unassigned; isomer 2) [Compound 92] was run?
Answer: > 6.00

Question: And the pIC50 [2, 4]?
Answer: < 4.52

Question: How did the pIC50 [1, 3] turn out when O=C1CN(C[C@H](O)CO)C[C@@H]2C[C@H](c3c(O)ccc(Cl)c3Cl)CN12 (single isomer, unassigned; isomer 2) [Compound 115] was run?
Answer: > 6.00

Question: What about the pIC50 [2, 4] of the same compound?
Answer: < 4.52

Question: What does the source list for C[C@@H](CO)N1CC(=O)N2C[C@@H](c3c(O)ccc(Cl)c3Cl)C[C@H]2C1 (single isomer, unassigned; isomer 2) [Compound 117]?
Answer: pIC50 [1, 3]: > 6.00; pIC50 [2, 4]: < 4.52

Question: COC[C@@H](CO)N1CC(=O)N2C[C@@H](c3c(O)ccc(Cl)c3Cl)C[C@H]2C1 (single isomer, unassigned; isomer 2) [Compound 119] was tested. Which pIC50 [1, 3] did it give?
Answer: > 6.00

Question: What about the pIC50 [2, 4] of the same compound?
Answer: < 4.52

Question: C[C@H](C1CNC1)N1CC(=O)N2C[C@@H](c3c(O)ccc(Cl)c3Cl)C[C@H]2C1 (single isomer, unassigned; isomer 2) [Compound 138] was tested. Which pIC50 [1, 3] did it give?
Answer: > 6.00

Question: What about the pIC50 [2, 4] of the same compound?
Answer: < 4.52

Question: With O=C1CN(C[C@H]2CCN2)C[C@@H]2C[C@H](c3c(O)ccc(Cl)c3Cl)CN12 (single isomer, unassigned; isomer 2) [Compound 140] as the compound, how does the pIC50 [1, 3] read?
Answer: > 6.00

Question: What about the pIC50 [2, 4] of the same compound?
Answer: < 4.52

Question: Which results are given for C[C@H](O)CN1CC(=O)N2C[C@@H](c3c(O)ccc(Cl)c3Cl)C[C@H]2C1 (single isomer, unassigned; isomer 2) [Compound 151]?
Answer: pIC50 [1, 3]: > 6.00; pIC50 [2, 4]: < 4.52

Question: How did the pIC50 [1, 3] turn out when COC[C@H](O)CN1CC(=O)N2C[C@@H](c3c(O)ccc(Cl)c3Cl)C[C@H]2C1 (single isomer, unassigned; isomer 2) [Compound 153] was run?
Answer: > 6.00

Question: And the pIC50 [2, 4]?
Answer: > 4.52

Question: O=C1C[C@H](N2CC(=O)N3C[C@@H](c4c(O)ccc(Cl)c4Cl)C[C@H]3C2)CN1 (single isomer, unassigned; isomer 2) [Compound 161] was tested. Which pIC50 [1, 3] did it give?
Answer: > 6.00

Question: What about the pIC50 [2, 4] of the same compound?
Answer: < 4.52

Question: With O=C1CN([C@H]2C[C@@](O)(CO)C2)C[C@@H]2C[C@H](c3c(O)ccc(Cl)c3Cl)CN12 (single isomer, unassigned; isomer 2) [Compound 164] as the compound, how does the pIC50 [1, 3] read?
Answer: > 6.00

Question: And the pIC50 [2, 4]?
Answer: < 4.52

Question: How did the pIC50 [1, 3] turn out when O=C1CC(N2CCNCC2)C[C@@H]2C[C@H](c3c(O)ccc(Cl)c3Cl)CN12 (stereo in doubt) [Compound 208, (2R,7R,8aS)-2-(2,3-dichloro-6-hydroxyphenyl)-7-(piperazin-1-yl)hexahydroindolizin-5(1H)-one] was run?
Answer: > 6.00

Question: And the pIC50 [2, 4]?
Answer: > 5.00

Question: With O=C(CO)N1CC(=O)N2CC[C@@H](c3c(O)ccc(Cl)c3Cl)C[C@H]2C1 [Compound 1, (8R,9aS)-8-(2,3-dichloro-6-hydroxyphenyl)-2-(2-hydroxyacetyl)-hexahydro-1H-pyrido[1,2-a]pyrazin-4-one] as the compound, how does the pIC50 [1, 5] read?
Answer: > 6.00

Question: What about the pIC50 [2, 6] of the same compound?
Answer: < 4.52

Question: How did the pIC50 [1, 5] turn out when O=C1CN(CCO)C[C@@H]2C[C@H](c3c(O)ccc(Cl)c3Cl)CN12 [Compound 2, (7R,8aS)-7-(2,3-dichloro-6-hydroxyphenyl)-2-(2-hydroxyethyl)-hexahydropyrrolo[1,2-a]pyrazin-4-one] was run?
Answer: > 6.00

Question: What about the pIC50 [2, 6] of the same compound?
Answer: < 4.52

Question: With COC[C@@H](O)C(=O)N1CC(=O)N2CC[C@@H](c3c(O)ccc(Cl)c3Cl)C[C@H]2C1 [Compound 4, (8R,9aS)-8-(2,3-dichloro-6-hydroxyphenyl)-2-[(2R)-2-hydroxy-3-methoxypropanoyl]-hexahydro-1H-pyrido[1,2-a]pyrazin-4-one] as the compound, how does the pIC50 [1, 5] read?
Answer: > 6.00

Question: And the pIC50 [2, 6]?
Answer: < 4.52

Question: How did the pIC50 [1, 5] turn out when CCC(=O)N1CC(=O)N2C[C@@H](c3c(O)ccc(Cl)c3Cl)C[C@H]2C1 [Compound 8, (7R,8aS)-7-(2,3-dichloro-6-hydroxyphenyl)-2-pro-pionylhexahydropyrrolo [1,2-a]pyrazin-4(1H)-one] was run?
Answer: > 6.00

Question: And the pIC50 [2, 6]?
Answer: > 4.52

Question: With CC[C@H](O)C(=O)N1CC(=O)N2CC[C@@H](c3c(O)ccc(Cl)c3Cl)C[C@H]2C1 [Compound 9, (8R,9aS)-8-(2,3-dichloro-6-hydroxyphenyl)-2-[(2S)-2-hydroxybutanoyl]-hexahydro-1H-pyrido[1,2-a]pyrazin-4-one] as the compound, how does the pIC50 [1, 5] read?
Answer: > 6.00

Question: And the pIC50 [2, 6]?
Answer: < 4.52

Question: With O=C(CCO)N1CC(=O)N2CC[C@@H](c3c(O)ccc(Cl)c3Cl)C[C@H]2C1 [Compound 11, (8R,9aS)-8-(2,3-dichloro-6-hydroxyphenyl)-2-(3-hydroxypropanoyl)octahydro-4H-pyrido[1,2-a]pyrazin-4-one] as the compound, how does the pIC50 [1, 5] read?
Answer: > 6.00

Question: What about the pIC50 [2, 6] of the same compound?
Answer: < 4.52

Question: CO[C@H](CO)C(=O)N1CC(=O)N2C[C@@H](c3c(O)ccc(Cl)c3Cl)C[C@H]2C1 [Compound 14, (7R,8aS)-7-(2,3-dichloro-6-hydroxyphenyl)-2-[(2R)-3-hydroxy-2-methoxypropanoyl]-hexahydropyrrolo[1,2-a]pyrazin-4-one] was tested. Which pIC50 [1, 5] did it give?
Answer: > 6.00

Question: What about the pIC50 [2, 6] of the same compound?
Answer: < 4.52

Question: O=C1CNC[C@@H]2C[C@H](c3c(O)ccc(Cl)c3Cl)CCN12 [Compound 15] was tested. Which pIC50 [1, 5] did it give?
Answer: > 6.00

Question: What about the pIC50 [2, 6] of the same compound?
Answer: > 4.52

Question: C[C@@H](O)C(=O)N1CC(=O)N2CC[C@@H](c3c(O)ccc(Cl)c3Cl)C[C@H]2C1 [Compound 16, (8R,9aS)-8-(2,3-dichloro-6-hydroxyphenyl)-2-[(2R)-2-hydroxypropanoyl]-hexahydro-1H-pyrido[1,2-a]pyrazin-4-one] was tested. Which pIC50 [1, 5] did it give?
Answer: > 6.00

Question: And the pIC50 [2, 6]?
Answer: < 4.52

Question: With O=C(CCO)N1CC(=O)N2C[C@@H](c3c(O)ccc(Cl)c3Cl)C[C@H]2C1 [Compound 17, (7R,8aS)-7-(2,3-dichloro-6-hydroxyphenyl)-2-(3-hydroxypropanoyl)hexa-hydropyrrolo[1,2-a]pyrazin-4(1H)-one] as the compound, how does the pIC50 [1, 5] read?
Answer: > 6.00

Question: And the pIC50 [2, 6]?
Answer: < 4.52

Question: O=C(CO)N1CCC(=O)N2C[C@@H](c3c(O)ccc(Cl)c3Cl)C[C@H]2C1 [Compound 18, (8R,9aS)-8-(2,3-dichloro-6-hydroxyphenyl)-2-(2-hydroxyacetyl)-hexahydro-1H-pyrrolo[1,2-a][1,4]diazepin-5-one] was tested. Which pIC50 [1, 5] did it give?
Answer: > 6.00

Question: And the pIC50 [2, 6]?
Answer: < 4.52

Question: CC[C@@H](O)C(=O)N1CC(=O)N2CC[C@@H](c3c(O)ccc(Cl)c3Cl)C[C@H]2C1 [Compound 21, (8R,9aS)-8-(2,3-dichloro-6-hydroxyphenyl)-2-[(2R)-2-hydroxybutanoyl]-hexahydro-1H-pyrido[1,2-a]pyrazin-4-one] was tested. Which pIC50 [1, 5] did it give?
Answer: > 6.00

Question: What about the pIC50 [2, 6] of the same compound?
Answer: > 4.52

Question: What does the source list for O=C([C@@H](O)CO)N1CC(=O)N2CC[C@@H](c3c(O)ccc(Cl)c3Cl)C[C@H]2C1 [Compound 23, (8R,9aS)-8-(2,3-dichloro-6-hydroxyphenyl)-2-[(2S)-2,3-dihydroxypropanoyl]-hexahydro-1H-pyrido[1,2-a]pyrazin-4-one]?
Answer: pIC50 [1, 5]: > 6.00; pIC50 [2, 6]: < 4.52

Question: How did the pIC50 [1, 5] turn out when O=C(CO)N1CC(=O)N2CC(c3c(O)ccc(Cl)c3Cl)C[C@H]2C1 (stereo partly drawn) [Compound 24, (8aS)-7-(2,3-dichloro-6-hydroxyphenyl)-2-(2-hydroxyacetyl)-hexahydropyrrolo[1,2-a]pyrazin-4-one] was run?
Answer: > 6.00

Question: And the pIC50 [2, 6]?
Answer: < 4.52

Question: How did the pIC50 [1, 5] turn out when CC1[C@@H]2C[C@H](c3c(O)ccc(Cl)c3Cl)CCN2C(=O)CN1C(=O)CO (stereo partly drawn) [Compound 25, (8R,9aS)-8-(2,3-dichloro-6-hydroxypheny1)-2-(2-hydroxyacetyl)-1-methyl-hexahydro-1H-pyrido[1,2-a]pyrazin-4-one] was run?
Answer: > 6.00

Question: And the pIC50 [2, 6]?
Answer: < 4.52

Question: How did the pIC50 [1, 5] turn out when CO[C@H](CO)C(=O)N1CC(=O)N2CC[C@@H](c3c(O)ccc(Cl)c3Cl)C[C@H]2C1 [Compound 29, (8R,9aS)-8-(2,3-dichloro-6-hydroxyphenyl)-2-[(2R)-3-hydroxy-2-methoxypropanoyl]-hexahydro-1H-pyrido[1,2-a]pyrazin-4-one] was run?
Answer: > 6.00

Question: What about the pIC50 [2, 6] of the same compound?
Answer: < 4.52

Question: O=C1CNC[C@@H]2CC(c3c(O)ccc(Cl)c3Cl)CN12 (stereo partly drawn) [Compound 33, (8aS)-7-(2,3-dichloro-6-hydroxyphenyl)-hexahydro-1H-pyrrolo[1,2-a]pyrazin-4-one trifluoroacetic acid] was tested. Which pIC50 [1, 5] did it give?
Answer: > 6.00

Question: What about the pIC50 [2, 6] of the same compound?
Answer: > 4.52

Question: O=C([C@@H](O)CO)N1CC(=O)N2C[C@@H](c3c(O)ccc(Cl)c3Cl)C[C@H]2C1 [Compound 34, (7R,8aS)-7-(2,3-dichloro-6-hydroxyphenyl)-2-[(2S)-2,3-dihydroxypropanoyl]-hexahydropyrrolo [1,2-a]pyrazin-4-one] was tested. Which pIC50 [1, 5] did it give?
Answer: > 6.00

Question: And the pIC50 [2, 6]?
Answer: < 4.52

Question: CCNC(=O)N1CC(=O)N2C[C@@H](c3c(O)ccc(Cl)c3Cl)C[C@H]2C1 [Compound 35, (7R,8aS)-7-(2,3-dichloro-6-hydroxyphenyl)-N-ethyl-4-oxo-hexahydropyrrolo[1,2-a]pyrazine-2-carboxamide] was tested. Which pIC50 [1, 5] did it give?
Answer: > 6.00

Question: What about the pIC50 [2, 6] of the same compound?
Answer: < 4.52

Question: How did the pIC50 [1, 5] turn out when CNC(=O)N1CC(=O)N2C[C@@H](c3c(O)ccc(Cl)c3Cl)C[C@H]2C1 [Compound 37, (7R,8aS)-7-(2,3-dichloro-6-hydroxyphenyl)-N-methyl-4-oxo-hexahydropyrrolo[1,2-a]pyrazine-2-carboxamide] was run?
Answer: > 6.00

Question: And the pIC50 [2, 6]?
Answer: < 4.52

Question: With O=C(CO)N1CC(=O)N2CC[C@@H](c3c(O)cc(Cl)c(Cl)c3Cl)C[C@H]2C1 [Compound 38, (8R,9aS)-2-(2-hydroxyacetyl)-8-(2,3,4-trichloro-6-hydroxyphenyl)octahydro-4H-pyrido[1,2-a]pyrazin-4-one] as the compound, how does the pIC50 [1, 5] read?
Answer: > 6.00

Question: And the pIC50 [2, 6]?
Answer: < 4.52

Question: CN(C)CC(=O)N1CC(=O)N2CC[C@@H](c3c(O)ccc(Cl)c3Cl)C[C@H]2C1 [Compound 40, (8R,9aS)-8-(2,3-dichloro-6-hydroxyphenyl)-2-[2-(dimethylamino)acetyl]-hexahydro-1H-pyrido[1,2-a]pyrazin-4-one] was tested. Which pIC50 [1, 5] did it give?
Answer: > 6.00

Question: What about the pIC50 [2, 6] of the same compound?
Answer: > 4.52
